# From EP0284686A1, “Condensed triazoles, their preparation and their use as medicines” (BEECHAM GROUP PLC, priority 1986, dated 1988)
# What was measured:
# [1] = molecular target: T1, RBL-1 5-lipoxygenase (Rattus norvegicus, UniProt P12527); experiment: RBL-1 5-lipoxygenase screen; assay type: biochemical; settings: 10,000g supernatant from RBL-1 cells, formation of 5-HETE and 5,12-diHETE from [1-14C] arachidonic acid, read-out: Percentage inhibition of RBL-1 5-lipoxygenase at 20µM
# T1 construct: 5-Lipoxygenase enzyme was prepared as a 10,000g supernatant from RBL-1 cells; endogenous in cells; host or cells: RBL-1 cells (10,000g supernatant of homogenate)
# T1 sequence (P12527 1-673): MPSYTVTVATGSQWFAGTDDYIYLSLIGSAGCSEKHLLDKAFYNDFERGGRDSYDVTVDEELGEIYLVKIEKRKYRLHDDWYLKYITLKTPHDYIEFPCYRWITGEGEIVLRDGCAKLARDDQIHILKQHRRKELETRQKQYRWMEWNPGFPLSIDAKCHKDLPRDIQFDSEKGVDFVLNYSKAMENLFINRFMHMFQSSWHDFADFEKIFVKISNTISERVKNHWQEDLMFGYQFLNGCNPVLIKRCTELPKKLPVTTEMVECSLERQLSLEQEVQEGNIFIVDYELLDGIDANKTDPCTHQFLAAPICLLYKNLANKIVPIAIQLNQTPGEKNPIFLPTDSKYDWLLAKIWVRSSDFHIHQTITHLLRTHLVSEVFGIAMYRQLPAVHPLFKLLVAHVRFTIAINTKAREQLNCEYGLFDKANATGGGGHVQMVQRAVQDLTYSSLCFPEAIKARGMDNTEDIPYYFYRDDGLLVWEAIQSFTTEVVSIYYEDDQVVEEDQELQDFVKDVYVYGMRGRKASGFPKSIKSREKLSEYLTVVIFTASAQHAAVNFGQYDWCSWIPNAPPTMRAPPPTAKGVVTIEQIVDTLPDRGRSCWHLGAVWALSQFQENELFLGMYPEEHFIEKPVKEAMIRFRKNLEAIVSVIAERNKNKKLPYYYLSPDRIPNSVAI
# Description: 5-Lipoxygenase enzyme was prepared as a 10,000g supernatant from RBL-1 cells by the method of Jakschik (Jakschik, B.A., F.F. Sun, L.M.Lee, and M.M. Steinhoff, 1980, Biochem. Biophys. Res.Comm. 95 103). The 10,000g supernatant was diluted with homogenization buffer to the equivalent of 1.5 - 2.5 × 10⁷ cells. ml.⁻¹ and made 2mM with respect to CaCl₂. Aliquots of 0.5ml were then dispensed into tubes, and incubated at 29°C with 5µl ethanol or compound in ethanol at the desired concentration for 2min. Then [1-¹⁴C] arachidonic acid was added in buffer to give a final concentration of 6.3µM and 0.2µCi per incubation, and the reaction continued at 29°C for 2min. The reaction was terminated by adding 1ml of acetone and cooling on ice, 0.5ml of ice-cold saline and 100µl of 2N formic acid were added, and the mixture was extracted with 2 × 2ml of chloroform. The extract was stored under N₂ at -20°C until analysis by chromatography. Activity was measured as the percentage of total radioactivity found in 5-HETE and 5,12-diHETE, and inhibition calculated as the decrease in formation of the sum of these two species in compound-treated incubates relative to control incubations.
# [2] = test system: passive peritoneal anaphylaxis; experiment: Rat passive peritoneal anaphylaxis (PPA); assay type: in vivo; settings: i.p., final concentration 2×10⁻⁴M, contact time 2½ minutes
# Description: The method is essentially similar to that described previously by Ross et al (Ross, Janet W., Smith, H. and Spicer, Barbara A. Increased vascular permeability during passive peritoneal anaphylaxis in the rat. Int. Arch. Allergy appl. Immun. 51, 226, 1976.)
# Charles River Sprague Dawley male rats of 225-275 g and Dunkin Hartley male white guinea pigs of 250-300 g were used.
# Charles River Sprague Dawley male rats of 225 - 275 g were given intraperitoneal injections of 0.5 ml of either Bordetella pertussis vaccine (4 × 10¹⁰ organisms/ml; Burroughs Wellcome, London) or Pertussis vaccine absorbed (not less than 41.u. B. pertussis antigen with aluminium hydroxide; The Lister Institute Elstree, England), and subcutaneous injections of 0.5ml of an emulsion of 100 mg of ovalbumin (chicken egg albumin; crystallised and lyophilised, grade V, Sigma, London) in 2ml of isotonic saline and 3ml of incomplete Freund's adjuvant. The rats were bled by cardiac puncture on day 18, the blood was pooled and the serum separated, stored at -20°C and thawed only once before use. The serum produced 72 hour passive cutaneous anaphylaxis activity in recipient rats to a dilution of 1:64 to 1:32 which was decreased to a dilution of less than 1:2 by heating at 56°C for 4 hours.
# Rats were given intraperitoneal injections of 2 ml of a 1:5 dilution of the rat anti-serum in isotonic saline. Two hours later 0.3ml of 5% solution of Pontamine Sky Blue (Raymond A. Lamb, London) in isotonic saline was injected intraveneously, followed by an intraperitoneal injection of the test compound in 1 ml of saline; (control rats received 1 ml of saline); followed 2.5 minutes later by an intraperitoneal injection of 5 ml of a Tyrode solution containing 50µg/ml heparin and 0.4 mg/ml of ovalbumin. The concentrations of the compounds were quoted as that in the 6 ml of fluid injected intraperitoneally. […]
# The optical densities (OD) of the supernatants which were not contaminated with blood were determined immediately at 625nm. […]
Compound,inhibition at 20 µM [1],Percentage inhibition SRS-A ([2]; SRS-A in peritoneal fluid assayed on guinea pig ileum),Percentage inhibition Dye ([2]; dye in peritoneal fluid (OD 625nm)),Percentage inhibition Histamine ([2]; histamine in peritoneal fluid)
"Cc1ccc(O)c2c1nnn2Cc1ccccc1 [Example 1, 3-Benzyl-4-hydroxy-7-methylbenzotriazole]",89%,–,–,–
"Cc1ccc(O)c2nn(Cc3ccccc3)nc12 [Example 2, 2-Benzyl-4-hydroxy-7-methylbenzotriazole]",81%,49,30,45
